The numbers were not newly measured in article PMC8198792, “Prediction of Anticancer Peptides with High Efficacy and Low Toxicity by Hybrid Model Based on 3D Structure of Peptides” (International Journal of Molecular Sciences, 2021), which cites them from elsewhere.

The data set has as its system cancer cell lines. Details: method as in 6 sources, ref CancerPPD [45] and SATPdb ||| ref CancerPPD/SATPdb ||| ref CancerPPD, SATPdb, Swissprot (PDB) ||| ref CancerPPD/SATPdb/Swissprot(PDB) ||| ref CancerPPD / SATPdb ||| ... The note with it: cited from earlier work. The source says: Supplement ijms-22-05630-s001.zip/ACPs(seguence).xlsx, sheet "D1" | column: Activity || Supplement ijms-22-05630-s001.zip/ACPs(seguence).xlsx, sheet "D2" | column: Activity || Supplement ijms-22-05630-s001.zip/ACPs(seguence).xlsx, sheet "D3" | column: Activity || (+ 2 further places)

The mark [1] stands for this setting: ACPs dataset D1, 1 = ACP (positive), 0 = non-ACP (negative), label taken from databases, ref CancerPPD [45] and SATPdb.
[2] abbreviates: ACPs dataset D4 (sheet "D4"), label 1 = ACP, experimentally validated ACPs, ref CancerPPD [45] and SATPdb.
The mark [3] stands for this setting: ACPs dataset D5 (sheet "D5"), label 1 = ACP (positive set), sequences with CancerPPD/SATPdb ID, ref CancerPPD, SATPdb.
Where [4] appears, read: ACPs dataset sheet D2, 1 = ACP (CancerPPD/SATPdb ID), 0 = non-ACP (Swissprot/PDB ID), ref CancerPPD, SATPdb, Swissprot (PDB).
Setting [5] is: ACPs dataset D5 (sheet "D5"), label 1 = ACP (positive set), 0 = non-ACP (negative set), ref CancerPPD [45] and SATPdb.
Where [6] appears, read: ACPs dataset D1, label 1 = ACP, 0 = non-ACP (non-anticancer AMPs from SATPdb), ref CancerPPD/SATPdb.
Where [7] appears, read: ACPs dataset D4 (sheet "D4"), label 1 = ACP, 0 = non-ACP, ref CancerPPD / SATPdb.
Setting [8] is: ACPs dataset D4 (sheet "D4"), label 1 = ACP (CancerPPD ID), 0 = non-ACP (non-anticancer AMP, SATPdb ID), ref CancerPPD [45] and SATPdb.
The mark [9] stands for this setting: ACPs dataset D3 (sheet "D3"), label 1 = ACP, 0 = non-ACP, ref CancerPPD/SATPdb.
[10] abbreviates: ACPs dataset D5, sheet "D5", label 1 = ACP, 0 = non-ACP, ref CancerPPD [45] and SATPdb.
[11] abbreviates: ACPs dataset D3 (supplement sheet "D3"), 1 = ACP, 0 = non-ACP, ref CancerPPD [45] and SATPdb.

Like-named read-outs stand apart in the source and are kept apart here.

On to “GSIPCEGSCVFIPCISAIIGCSCSNKVCYKN [compound 4379]”, for which the Activity by setting is: under setting [1], 1; under setting [2], 1; under setting [3], 1; under setting [4], 1.

Turning to “GSIPCGESCVFIPCISSVIGCACKSKVCYKN [compound 4374]”, the Activity was 1 under setting [1], 1 under setting [2], 1 under setting [3] and 1 under setting [4].

For “GSKKPVPIIY CNRRTGKCQR M [5XO4 NMR - A 1-21]”, the Activity reads like this: under setting [5], 0; under setting [4], 0.

For “GSSFLSPEHQLAQQRKESKKPPAKLQPR [satpdb13082]”, the Activity runs as follows: under setting [6], 0; under setting [7], 0.

Regarding “GTFPCGESCVFIPCLTSAIGCSCKSKVCYKN [compound 4418]”, the Activity under setting [1] is reported as 1, the Activity under setting [2] is listed as 1, the Activity under setting [3] was 1 and the Activity under setting [4] is 1.

For “GTLPCGESCVWIPCISAVVGCSCKSKVCYKN [satpdb10694]”, the Activity is recorded as 0 under setting [1] and 0 under setting [8].

Take “GTPCGESCVYIPCFTAVVGCTCKDKVCYLN [satpdb10441]”: the Activity is given as 0 under setting [6] and 0 under setting [8].

As to “GTWDDIGQGIGRVAYWVGKAMGNMSDVNQASRINRKKKH [2JPJ NMR - A 1-39]”, the Activity reads like this: (ACPs dataset D2 (supplement ACPs(seguence).xlsx, sheet D2), dataset label 1/0 (ACP / non-ACP), entries identified by Swissprot(PDB ID), ref CancerPPD/SATPdb/Swissprot(PDB)) 0; under setting [5], 0.

Regarding GVDITVIRPNH [satpdb22601], the Activity under setting [1] is given as 1, the Activity under setting [2] is given as 1, the Activity under setting [3] was 1 and the Activity under setting [4] is listed as 1.

Regarding “GVFGLLAKAALKGASKLIPHLLPSRQQ [satpdb12176]”, the Activity is, setting by setting: under setting [6], 0; under setting [8], 0.

In the case of “GVFTLIKGATQLIGKTLGKELGKTGLEIMACKITKQC [satpdb12576]”, the Activity under setting [6] is given as 0 and the Activity under setting [8] was 0.

With “GVGDLIRKAV SVIKNIV [6GS3 X-ray 1.45 A/B 1-17]”, the Activity reads like this: under setting [5], 0; under setting [4], 0.

For “GVLDTFKDVAIGVAKGAGTGVLKALLCKLDKSC [satpdb13223]”, the Activity under setting [6] is 0 and the Activity under setting [7] is given as 0.

With GVLSNVIGYLKKLGTGALNAVLKQ [satpdb12685], the Activity reads like this: under setting [6], 0; under setting [8], 0.

With “GVPICGETCTLGTCYTAGCSCSWPVCTRN [compound 4421]”, the Activity is, setting by setting: under setting [1], 1; under setting [2], 1; under setting [3], 1; under setting [4], 1.

Take GVVDILKGAAKDLAGHLATKVMNKL [satpdb14637]: the Activity was 0 under setting [9], 0 under setting [7] and 0 under setting [10].

On to GVWSTILGGLKKFAKGGLDAIVNPK [satpdb10425], for which the Activity is on record as 0 under setting [1] and 0 under setting [8].

Consider “GWIRDFGKRIERVGQHTRDATIQTIAVAQQAANVAATLKG [satpdb12541]”, for which the Activity was 0 under setting [6] and 0 under setting [8].

On to “GWKKWFNRAKKVGKTVGGLAVDHYLG [satpdb11446]”, for which the Activity under setting [6] is given as 0 and the Activity under setting [8] is 0.

Take GWLPTFGKILRKAMQLGPKLIQPI [satpdb12473]: the Activity by setting is: under setting [6], 0; under setting [8], 0.

In the case of HFLLTKVNLAKKIL [satpdb11375], the Activity is reported as 0 under setting [11], 0 under setting [7] and 0 under setting [10].

For the substance HFLLTLKNLAKKIL [satpdb10120], the Activity reads like this: under setting [11], 0; under setting [7], 0; under setting [10], 0.

As for HFLLTLVNLAKkIL [satpdb14808], the Activity under setting [9] is 0, the Activity under setting [7] is 0 and the Activity under setting [10] is 0.

Turning to HGSTTLRDITV [satpdb28282], the Activity is reported as 1 under setting [1], 1 under setting [2], 1 under setting [3] and 1 under setting [4].

Consider HHPHGHHPHGHHPHGHHPHG [compound 4189], for which the Activity is given as 1 under setting [1], 1 under setting [2], 1 under setting [3] and 1 under setting [4].

Regarding “HRHQGPIFDTRPSPFNPNQPRPGPIY [satpdb10283]”, the Activity is, setting by setting: under setting [1], 0; under setting [8], 0.

Take “HTHQDFQPVLHLVALNTPLSGGMRGIR [satpdb17795]”: the Activity is, setting by setting: under setting [1], 1; under setting [2], 1; under setting [3], 1; under setting [4], 1.

As to IDWKKLLDAAKQIL [compound 4438], the Activity by setting is: under setting [1], 1; under setting [2], 1; under setting [3], 1; under setting [4], 1.

IFGAILPLAL GALKNLIK [2N0O NMR - A 1-18]: the Activity under setting [5] was 0 and the Activity under setting [4] was 0.

As for IFGAIWKGISSLL [satpdb10136], the Activity runs as follows: under setting [1], 0; under setting [8], 0.

In the case of “IKLSPETKDNLKKVLKGAIKGAIAVAKMV [satpdb12617]”, the Activity runs as follows: under setting [9], 0; under setting [7], 0; under setting [10], 0.

Consider ILGKIWKIKKLF [satpdb10262], for which the Activity under setting [1] was 0 and the Activity under setting [8] is recorded as 0.

As to ILPFKFPFFPFRR [satpdb11203], the Activity under setting [1] is 0 and the Activity under setting [8] is given as 0.

As for ILPILSLIGGLLGK [compound 4439], the Activity is, setting by setting: under setting [1], 1; under setting [2], 1; under setting [3], 1; under setting [4], 1.

With ILPLKLPLLPLRR [satpdb14372], the Activity under setting [9] is reported as 0, the Activity under setting [7] is listed as 0 and the Activity under setting [10] was 0.

With ILPWKWPWAPARR [satpdb12615], the Activity was 0 under setting [9], 0 under setting [7] and 0 under setting [10].

As for ILPWKWPWWPWRR [compound 1827], the Activity is reported as 1 under setting [1], 1 under setting [2], 1 under setting [3] and 1 under setting [4].

Consider ILRWPWWPWRRK [compound 1880], for which the Activity is, setting by setting: under setting [11], 1; under setting [8], 1; under setting [5], 1.

As to INEFLERSGIPRQRNQ [satpdb14958], the Activity by setting is: under setting [1], 1; under setting [2], 1; under setting [3], 1; under setting [4], 1.

With INGSLDKRLLPDVET [satpdb28594], the Activity is, setting by setting: under setting [1], 1; under setting [2], 1; under setting [3], 1; under setting [4], 1.

Turning to INGSLDKRVQDCYHG [satpdb28376], the Activity is, setting by setting: under setting [1], 1; under setting [2], 1; under setting [3], 1; under setting [4], 1.

For the substance INLKAIAAMAKKL [satpdb11272], the Activity by setting is: under setting [1], 0; under setting [8], 0.

As for INWKKIAEVGGKILSS [satpdb11077], the Activity is recorded as 0 under setting [1] and 0 under setting [8].

With “IPCGESCVWIPCISGMFGCSCKDKVCYS [compound 4368]”, the Activity runs as follows: under setting [1], 1; under setting [2], 1; under setting [3], 1; under setting [4], 1.

Turning to “ISDYSIAMDKIRQQDFVNWLLAQKGKKSDWKHNITQ [satpdb11921]”, the Activity under setting [6] is on record as 0 and the Activity under setting [8] is listed as 0.

Turning to “ITIPPIIKDTLKKFFKGGIAGVMGKSQ [satpdb11170]”, the Activity by setting is: under setting [1], 0; under setting [8], 0.

Regarding ITIPPIVKNTLKKFIKGAVSALMS [satpdb11263], the Activity by setting is: under setting [1], 0; under setting [8], 0.

Consider ITMQGIQGQKIRMIMF [satpdb23309], for which the Activity under setting [1] is given as 1, the Activity under setting [2] was 1, the Activity under setting [3] is on record as 1 and the Activity under setting [4] was 1.

Turning to ITPATPFTPAIITEITAAVIA [satpdb10693], the Activity was 0 under setting [1] and 0 under setting [8].

In the case of “IWLTALKFLG KNLGKHLAKQ QLAKL [6CL3 NMR - A 1-25]”, the Activity reads like this: under setting [5], 0; under setting [4], 0.
